Assay results taken from ChEMBL document CHEMBL5236615, “Discovery of Novel N-Heterocyclic-Fused Deoxypodophyllotoxin Analogues as Tubulin Polymerization Inhibitors Targeting the Colchicine-Binding Site for Cancer Treatment” (J Med Chem, 2022).
pIC50: −log10 of the molar value. Active and inactive are the calls of the source. The rule behind the calls is not given here.

What was measured:
[1] = test system: MCF7; assay: cells; conditions: Homo sapiens, MCF7, 72 h
Description: Antiproliferative activity against human MCF7 cells measured after 72 hrs by MTT assay

[2] = test system: K562; assay: cells; conditions: Homo sapiens, K562, 72 h
Description: Antiproliferative activity against human K562 cells measured after 72 hrs by MTT assay

[3] = Metabolic stability in human liver microsomes assessed as half life at 1 uM by LC/MS analysis; assay type: ADME, Microsome
[4] = Metabolic stability in human liver microsomes assessed as intrinsic clearance at 1 uM by LC/MS analysis; assay type: ADME, Microsome; conditions: read-out: CLH
[5] = test system: HT-29; assay: Antiproliferative activity against human HT-29 cells measured after 72 hrs by MTT assay; assay type: functional, cell-based; conditions: HT-29, 72 h
[6] = test system: HCT-116; assay: Antiproliferative activity against human HCT-116 cells measured after 72 hrs by MTT assay; assay type: functional, cell-based; conditions: HCT-116, 72 h
[7] = Antitumor activity against paclitaxel-resistant human MCF7/TxR cells xenografted in Balb/c mouse assessed as tumor growth inhibition at 10 mg/kg, ip administered for every 2 days for 21 days; assay type: functional; conditions: 504 h, time 21 day, read-out: TGI
[8] = Antiproliferative activity against paclitaxel-resistant human A549/TxR cells measured after 72 hrs by MTT assay; assay type: functional, cell-based
[9] = Toxicity in Balb/c mouse assessed as pathological changes in blood alanine aminotransferase level at 10 mg/kg, ip administered for every 2 days for 14 days; assay type: organism-based; conditions: in vivo, 336 h, time 14 day
[10] = Antiproliferative activity against paclitaxel-resistant human MCF7/TxR cells measured after 72 hrs by MTT assay; assay type: functional, cell-based
[11] = Toxicity in Balb/c mouse assessed as pathological changes in blood aspartate aminotransferase level at 10 mg/kg, ip administered for every 2 days for 14 days; assay type: organism-based; conditions: in vivo, 336 h, time 14 day
[12] = target: Tubulin (Homo sapiens) (UniProt P68371+Q9H4B7+P0DPH7+P68366+Q13509+Q71U36+P04350+Q3ZCM7+P07437+P68363+Q9BQE3+Q6PEY2+Q13885+Q9BVA1+Q9BUF5); assay: Disruption of microtubule network in human MCF7 cells assessed as broken microtubule filaments at 20 nM measured after 6 hrs by immunofluorescence assay; assay type: cell-based
[13] = target: Tubulin beta (Homo sapiens) (UniProt P68371+Q9H4B7+Q13509+P04350+Q3ZCM7+P07437+Q13885+Q9BVA1+Q9BUF5+A6NNZ2); assay: Binding affinity to beta-tubulin colchicine binding site in human MCF-7 cells assessed as inhibition of EBI-beta-tubulin adduct band formation preincubated for 2 hrs followed by EBI addition and measured after 1.5 hrs by EBI competition based Western blotting analysis; assay type: cell-based; conditions: MCF7, dose 0.2-25 µM, time 3.5 hrs

| Compound | pIC50 [1] | pIC50 [2] | pIC50 [5] | pIC50 [6] | further results |
| --- | --- | --- | --- | --- | --- |
| O=C1NC(=O)N2[C@H](c3cc(Cl)c(F)c(Cl)c3)c3cc4c(cc3C[C@@H]12)OCCO4 | 7.31 | 7.31 | 7.63 | 7.64 | half-life at 1 µM [3]: 14.4 min; CLint scaled at 1 µM [4]: 7.26 L/h/kg |
| COc1c(Br)cc([C@@H]2c3cc4c(cc3C[C@H]3COC(=O)N32)OCCO4)cc1Br | 8.37 | 8.17 | 8.62 | 8.48 | half-life at 1 µM [3]: 1.27 min; CLint scaled at 1 µM [4]: 82.1 L/h/kg |
| COc1cc([C@@H]2c3cc4c(cc3C[C@H]3C(=O)NCC(=O)N23)OCO4)cc(OC)c1OC | 5.63 | 6.10 | 5.72 | 5.91 | – |
| CC(=O)O[C@H]1C(=O)[C@@]2(C)[C@H]([C@H](OC(=O)c3ccccc3)[C@]3(O)C[C@H](OC(=O)[C@H](O)[C@@H](NC(=O)c4ccccc4)c4ccccc4)C(C)=C1C3(C)C)[C@]1(OC(C)=O)CO[C@@H]1C[C@@H]2O [PACLITAXEL] | 7.71 | 7.53 | 7.97 | 7.20 | inhibition in vivo at 10 mg/kg [7]: 28.6%; pIC50 [8]: 5.78; Activity [9]: Toxic; pIC50 [10]: 5.56; Activity [11]: Toxic |
| COc1cc([C@@H]2c3cc4c(cc3C[C@H]3COC(=O)N32)OCO4)ccn1 | < 5.30 | < 5.30 | < 5.30 | < 5.30 | – |
| COc1ccc(/C=C\c2cc(OC)c(OC)c(OC)c2)cc1O [COMBRETASTATIN A4] | 8.23 | 7.95 | 6.41 | 8.17 | Activity [12]: Active; Activity [13]: Dose-Dependent Effect; pIC50 [8]: 7.30; pIC50 [10]: 7.81 |
| CCN1C(=O)[C@@H]2Cc3cc4c(cc3[C@@H](c3cc(OC)c(OC)c(OC)c3)N2C1=O)OCCO4 | < 5.30 | < 5.30 | < 5.30 | < 5.30 | – |
| O=C1NC(=O)N2[C@H](c3cc(Cl)nc(Cl)c3)c3cc4c(cc3C[C@@H]12)OCCO4 | 6.40 | 6.37 | 6.45 | 6.27 | – |
| COc1cc([C@@H]2c3cc4c(cc3C[C@H]3COC(=O)N32)OCCO4)cc(OC)c1OC | 7.76 | 7.77 | 7.83 | 8.17 | half-life at 1 µM [3]: 2.19 min; CLint scaled at 1 µM [4]: 47.6 L/h/kg |
| COc1cc([C@@H]2c3cc4c(cc3C[C@H]3COC(=O)[C@@H]32)OCO4)cc(OC)c1OC [DESOXYPODOPHYLLOTOXIN] | 8.22 | 7.80 | 7.78 | 7.84 | half-life at 1 µM [3]: 1.12 min; CLint scaled at 1 µM [4]: 86.1 L/h/kg |
| COc1cc([C@@H]2c3cc4c(cc3C[C@H]3C(=O)NC(=O)N23)OCCO4)cc(OC)c1OC | 7.77 | 7.50 | 7.67 | 7.57 | half-life at 1 µM [3]: 21.4 min; CLint scaled at 1 µM [4]: 4.87 L/h/kg |
| COc1cc([C@@H]2c3cc4c(cc3C[C@H]3C(=O)NC(=O)N23)OCCO4)cc2c1OCO2 | 7.44 | 7.04 | 7.13 | 7.33 | – |
| COc1cc([C@@H]2c3cc4c(cc3C[C@H]3COC(=O)N32)OCO4)cc(OC)c1OC | 7.47 | 7.70 | 7.57 | 7.78 | – |
| COc1cc([C@@H]2c3cc4c(cc3C[C@H]3C(=O)N(C)C(=S)N23)OCO4)cc(OC)c1OC | < 5.30 | < 5.30 | < 5.30 | < 5.30 | – |
| CCN1C(=O)[C@@H]2Cc3cc4c(cc3[C@@H](c3cc(OC)c(OC)c(OC)c3)N2C1=S)OCO4 | < 5.30 | < 5.30 | < 5.30 | < 5.30 | – |
| O=C1OC[C@@H]2Cc3cc4c(cc3[C@@H](c3ccc(OC(F)F)c(OC(F)F)c3)N12)OCCO4 | 6.58 | 6.50 | 7.13 | 6.04 | – |
| COc1cc([C@@H]2c3cc4c(cc3C[C@H]3COC(=O)N32)OCO4)cc2c1OCO2 | 6.83 | 7.14 | 6.67 | 7.25 | – |
| CCCN1CC(=O)N2[C@H](c3cc(OC)c(OC)c(OC)c3)c3cc4c(cc3C[C@H]2C1=O)OCCO4 | < 5.30 | < 5.30 | < 5.30 | < 5.30 | – |
| CCN1C(=O)[C@@H]2Cc3cc4c(cc3[C@@H](c3cc(OC)c(OC)c(OC)c3)N2C1=S)OCCO4 | < 5.30 | < 5.30 | < 5.30 | < 5.30 | – |
| COc1cc([C@@H]2c3cc4c(cc3C[C@H]3C(=O)N(C)C(=S)N23)OCCO4)cc(OC)c1OC | < 5.30 | < 5.30 | < 5.30 | < 5.30 | – |

| Compound | pIC50 [1] | pIC50 [2] | pIC50 [5] | pIC50 [6] | further results |
| --- | --- | --- | --- | --- | --- |
| CCN1C(=O)[C@@H]2Cc3cc4c(cc3[C@@H](c3cc(OC)c(OC)c(OC)c3)N2C1=O)OCO4 | < 5.30 | < 5.30 | < 5.30 | < 5.30 | – |
| COc1cc([C@@H]2c3cc4c(cc3C[C@H]3COC(=O)N32)OCCO4)cc(OC)c1Br | 7.43 | 7.40 | 7.32 | 6.99 | – |
| O=C1OC[C@@H]2Cc3cc4c(cc3[C@@H](c3ccncc3)N12)OCO4 | < 5.30 | < 5.30 | < 5.30 | < 5.30 | – |
| COc1cc([C@@H]2c3cc4c(cc3C[C@H]3COC(=O)N32)OCCCO4)cc(OC)c1OC | 7.23 | 6.97 | 7.09 | 6.92 | – |
| O=C1OC[C@@H]2Cc3cc4c(cc3[C@@H](c3cc(C(F)(F)F)cc(C(F)(F)F)c3)N12)OCCO4 | 7.00 | 6.70 | 7.25 | 6.51 | – |
| COc1c(Cl)cc([C@@H]2c3cc4c(cc3C[C@H]3COC(=O)N32)OCCO4)cc1Cl | 8.23 | 8.20 | 8.22 | 8.24 | half-life at 1 µM [3]: 2.95 min; CLint scaled at 1 µM [4]: 35.4 L/h/kg |
| COc1cc([C@@H]2c3cc4c(cc3C[C@H]3C(=O)NC(=O)N23)OCO4)cc(OC)c1OC | 6.90 | 7.35 | 7.31 | 7.19 | – |
| COc1cc([C@@H]2c3cc4c(cc3C[C@H]3C(=O)NCC(=O)N23)OCCO4)cc(OC)c1OC | 5.81 | 6.11 | 6.13 | 5.51 | – |
| COc1cc([C@@H]2c3cc4c(cc3C[C@H]3C(=O)NC(=O)N23)OCCO4)cc(F)c1OC | 7.66 | 7.53 | 7.58 | 7.70 | – |
| COc1cc([C@@H]2c3cc4c(cc3C[C@H]3COC(=O)N32)OCCO4)cc(F)c1OC | 7.94 | 7.87 | 7.74 | 8.00 | – |
| COc1cc([C@@H]2c3cc4c(cc3C[C@H]3C(=O)NC(=O)N23)OCCO4)cc([N+](=O)[O-])c1OC | 7.39 | 7.27 | 7.30 | 7.50 | – |
| COc1c(Br)cc([C@H]2c3cc4c(cc3C[C@H]3C(=O)NC(=O)N23)OCCO4)cc1Br | < 5.30 | < 5.30 | < 5.30 | < 5.30 | – |
| COc1cc([C@@H]2c3cc4c(cc3C[C@H]3COC(=O)N32)OCCO4)cc2c1OCO2 | 7.45 | 7.53 | 7.35 | 7.29 | – |
| COc1cc([C@@H]2c3cc4c(cc3C[C@H]3COC(=O)N32)OCCO4)ccc1F | 6.43 | 6.81 | 7.20 | 6.56 | – |
| COc1cc([C@@H]2c3cc4c(cc3C[C@H]3COC(=O)N32)OCO4)cc(OC)c1O | < 5.30 | < 5.30 | < 5.30 | < 5.30 | – |
| COc1cc([C@@H]2c3cc4c(cc3C[C@H]3COC(=O)N32)OCCCO4)cc2c1OCO2 | 6.02 | 6.71 | 6.21 | 6.86 | – |
| CCCN1CC(=O)N2[C@H](c3cc(OC)c(OC)c(OC)c3)c3cc4c(cc3C[C@H]2C1=O)OCO4 | < 5.30 | < 5.30 | < 5.30 | < 5.30 | – |
| COc1ccc([C@@H]2c3cc4c(cc3C[C@H]3COC(=O)N32)OCO4)cc1OC | < 5.30 | 6.23 | 6.12 | < 5.30 | – |
| COc1cc2c(cc1OC)[C@@H](c1cc(OC)c(OC)c(OC)c1)N1C(=O)OC[C@@H]1C2 | < 5.30 | < 5.30 | < 5.30 | < 5.30 | – |
